Results taken from patent publication US12109284B2, “Compositions comprising fluoride and calcium and method for preparing them” (DENTHERAPY LTD, priority 2016, dated 2024).

Key:
[1] = cited from earlier work; for Buffer range: pH
[2] = Microindentation cycling re-mineralisation model (Example 4); parameters: species or system human
Method: Citric acid eroded human enamel specimens were placed into a cycling re-mineralisation model where they were cycled between a treatment, artificial saliva and citric acid five times a day over five days. Three different treatments were tested and were: 1. 2% OPN formulation containing 500 ppm fluoride. 2. 500 ppm fluoride solution. 3. Deionised water. At the end of each of the five days the micro hardness of the enamel was measured by Vickers microindentation to determine the extent of the re-mineralisation of the enamel lesions.
The microhardness of the enamel was determined by indentation using a Vickers diamond-tip indenter. Each hardness value was determined from the average of ten individual measurements made centrally on each enamel specimen using 1.9N force over an indent time of 20 seconds. At the start of each set of measurements a calibration check was performed using a standard metal block to ensure the reproducibility of microhardness was within 3% of the test block micro hardness.

Row | Compound | pKa [1] | Buffer range [1] | Trend in remineralisation (microhardness ranking) ([2]; Day 1) | Trend in remineralisation (microhardness ranking) ([2]; Day 2) | Trend in remineralisation (microhardness ranking) ([2]; Day 3) | Trend in remineralisation (microhardness ranking) ([2]; Day 4 (probability 0.06)) | Trend in remineralisation (microhardness ranking) ([2]; Day 5) | Increase in hardness of eroded enamel compared to deionised water ([2]; all time points)
1 | tris(hydroxymethyl)aminomethane | 8.97 | 7.5-9.5 |  |  |  |  |  | 
2 | [F-].[Na+] [NaF, sodium fluoride] |  |  | OPN = NaF > DI water | OPN = NaF > DI water | NaF = OPN > DI water | OPN = NaF > DI water | OPN > NaF > DI water | statistically superior to deionised water
3 | O=C([O-])O.[Na+] [sodium bicarbonate] |  | 5.1-8.0 |  |  |  |  |  | 
